The record followed here is paper PMC10218941, “Design, Synthesis, Antiproliferative Actions, and DFT Studies of New Bis–Pyrazoline Derivatives as Dual EGFR/BRAF^V600E Inhibitors” (International Journal of Molecular Sciences, 2023).

One test concerns caspase-3. The test can be described thus: Caspase 3 activation assay. It counts as cell-based, human. The note with it: MCF-7 cells; for Caspase–3 Fold Change: versus untreated control. The text has this:
Compounds 12 and 17 were studied for their effects on caspase-3 levels in MCF-7 (breast cancer cell line) and staurosporine as a reference (503.00 ± 4 pg/mL). […] The aforementioned results imply that caspase-3 overexpression may be a contributing factor in the antiproliferative effects of the investigated compounds. […]
4.2.3. Caspase-3 activation assay
Allow all reagents to reach room temperature before use. Gently mix all liquid reagents prior to use. Determine the number of 8-well strips needed for the assay. Insert these in the frame(s) for current use. Add 100 μl of the Standard Diluent Buffer to the zero standard wells. Well(s) reserved for chromogen blank should be left empty. Add 100 μl of standards and controls or diluted samples to the appropriate microtiter wells. The sample dilution chosen should be optimized for each experimental system. Tap gently on side of plate to mix. Cover wells with plate cover and incubate for 2 hours at room temperature. Thoroughly aspirate or decant solution from wells and discard the liquid, Wash wells 4 times. Pipette 100 μl of Caspase-3 (Active) Detection Antibody solution into each well except the chromogen blank(s). Tap gently on the side of the plate to mix. Cover plate with plate cover and incubate for 1 hour at room temperature. Thoroughly aspirate or decant solution from wells and discard the liquid, Wash wells 4 times. Add 100 μl Anti-Rabbit IgG HRP Working Solution to each well except the chromogen blank(s). Prepare the working dilution as described in Preparing IgG HRP. Cover wells with the plate cover and incubate for 30 minutes at room temperature. Thoroughly aspirate or decant solution from wells and discard the liquid. Wash wells 4 times. Add 100 μl of Stabilized Chromogen to each well. The liquid in the wells will begin to turn blue. Incubate for 30 minutes at room temperature and in the dark. The incubation time for chromogen substrate is often determined by the microtiter plate reader used. Many plate readers have the capacity to record a maximum optical density (O.D.) of 2.0. The O.D. values should be monitored, and the substrate reaction stopped before the O.D. of the positive wells exceeds the limits of the instrument. The O.D. values at 450 nm can only be read after the Stop Solution has been added to each well. If using a reader that records only to 2.0 O.D., stopping the assay after […]
Add 100 μl of Stop Solution to each well. Tap side of plate gently to mix. The solution in the wells should change from blue to yellow. Read the absorbance of each well at 450 nm having blanked the plate reader against a chromogen blank composed of 100 μl each of Stabilized Chromogen and Stop Solution. Read the plate within 2 hours after adding the Stop Solution. Use a curve fitting software to generate the standard curve. A four-parameter algorithm provides the best standard curve fit. Read the concentrations for unknown samples and controls from the standard curve. Multiply value(s) obtained for sample(s) by the appropriate dilution factor to correct for the dilution in step 3. Samples producing signals greater than that of the highest standard should be diluted in Standard Diluent Buffer and reanalyzed. […]

A further test relates to Bax. Kind of test: Bax level assay. In kind it is cell-based, human. Conditions: MCF-7 cells; for Bax Fold Change: versus untreated control. The protocol:
Additionally, the effects of compounds 12 and 17 on the levels of caspase-8, Bax, and Bacl-2 in the MCF-7 cancer cell line and staurosporine as a control were examined. […]
Cells were obtained from American Type Culture Collection, cells were grown in RPMI 1640 containing 10% fetal bovine serum at 37°C, stimulated with the compounds to be tested for caspase8, and lysed with Cell Extraction Buffer. This lysate was diluted in Standard Diluent Buffer over the range of the assay and measured for human active caspase-8 content. […]
4.2.5. Bax activation assay
Bring all reagents, except the human Bax-α Standard, to room temperature for at least 30 minutes prior to opening. The human Bax-α Standard solution should not be left at room temperature for more than 10 minutes. All standards, controls and samples should be run in duplicate. Refer to the Assay Layout Sheet to determine the number of wells to be used and put any remaining wells with the desiccant back into the pouch and seal the ziploc. Store unused wells at 4 °C. Pipet 100 μL of Assay Buffer into the S0 (0 pg/mL standard) wells. Pipet 100 μL of Standards #1 through #6 into the appropriate wells. Pipet 100 μL of the Samples into the appropriate wells. Tap the plate gently to mix the contents. Seal the plate and incubate at room temperature on a plate shaker for 1 hour at ~500 rpm. Empty the contents of the wells and wash by adding 400 μL of wash solution to every well. Repeat the wash 4 more times for a total of 5 washes. After the final wash, empty or aspirate the wells and firmly tap the plate on a lint free paper towel to remove any remaining wash buffer. Pipet 100 μL of yellow Antibody into each well, except the Blank. Seal the plate and incubate at room temperature on a plate shaker for 1 hour at ~500 rpm. Empty the contents of the wells and wash by adding 400 μL of wash solution to every well. Repeat the wash 4 more times for a total of 5 washes. After the final wash, empty or aspirate the wells and firmly tap the plate on a lint free paper towel to remove any remaining wash buffer. Add 100 μL of blue Conjugate to each well, except the Blank. Seal the plate and incubate at room temperature on a plate shaker for 30 minutes at ~500 rpm. Empty the contents of the wells and wash by adding 400 μL of wash solution to every well. Repeat the wash 4 more times for a total of 5 washes. After the final wash, empty or aspirate the wells and firmly tap the plate on a lint free paper towel to remove any remaining wash buffer. Pipet 100 μL of Substrate Solution into each well. Incubate for 30 minutes at room temperature on a plate shaker at ~500 rpm. Pipet 100 μL Stop Solution to each well. Blank the plate reader against the Blank wells, read the optical density at 450 nm. Calculate the average net Optical Density (OD) bound for each standard and sample by subtracting the average Blank OD from the average OD for each standard and sample.
Using linear graph paper, plot the Average Net OD for each standard versus Bax concentration in each standard. Approximate a straight line through the points. The concentration of Bax in the unknowns can be determined by interpolation. […]
Cover with a plate cover and incubate at room temperature, on a microplate shaker at 100 rpm if available, for 2 hours. Remove plate cover and empty the wells.
Wash microwell strips 3 times as described in step 2. Add 100 μL of diluted Streptavidin-HRP to all wells, including the blank wells. Cover with a plate cover and incubate at room temperature, on a microplate shaker at 100 rpm if available, for 1 hour. Remove plate cover and empty the wells.
Wash microwell strips 3 times as described in step 2. Proceed to the next step. Pipette 100 μl of mixed TMB Substrate Solution to all wells, including the blanks. Incubate the microwell strips at room temperature (18° to 25°C) for about 15 minutes, if available on a rotator set at 100 rpm.
Avoid direct exposure to intense light. […]

Each structure is given as a SMILES string. “And” between values parts separate entries of the source, which are not always exact repeats. Identical values can stand only once.

Consider `COc1ccc(C2CC(c3ccc(NC(=O)COc4ccc(C5=NNC(c6ccc(OC)c(OC)c6)C5)cc4)cc3)=NN2)cc1` (stereo not drawn) [Compound 17, 2-(4-(5-(3,4-Dimethoxyphenyl)-4,5-dihydro-1H-pyrazol-3-yl)phenoxy)-N-(4-(5-(4-methoxyphenyl)-4,5-dihydro-1H-pyrazol-3-yl)phenyl)acetamide], for which, in the test on caspase-3, the “Caspase–3 Conc” value was 469.50 ± 5 pg/mL and 469.50 ± 4 pg/mL; the “Caspase–3 Fold Change” value was 7.2. For the same compound, in the test on Bax, the “Bax Conc” value was 285 pg/mL and the “Bax Fold Change” value was determined as 35.
In the case of `COc1ccc(C2CC(c3ccc(OCC(=O)Nc4ccc(C5=NNC(c6ccc(OC)c(OC)c6)C5)cc4)cc3)=NN2)cc1` (stereo not drawn) [Compound 12, 2-(4-(5-(4-Methoxyphenyl)-4,5-dihydro-1H-pyrazol-3-yl)phenoxy)-N-(4-(5-(3,4-dimethoxyphenyl)-4,5-dihydro-1H-pyrazol-3-yl)phenyl)acetamide], in the test on caspase-3, the “Caspase–3 Conc” value was 543.50 ± 4 pg/mL and the “Caspase–3 Fold Change” value was 8.5. In addition, in the test with Bax, the “Bax Conc” value is 296 pg/mL and the “Bax Fold Change” value amounted to 37.
The matching figures for `CN[C@@H]1C[C@H]2O[C@@](C)([C@@H]1OC)n1c3ccccc3c3c4c(c5c6ccccc6n2c5c31)C(=O)NC4` [Staurosporine, reference compound]: 503.00 ± 4 pg/mL, 8.0, 280 pg/mL and 35.
